In US8143301B2, “Hepatitis C virus inhibitors” (Bristol Myers Squibb Company, priority 2009, dated 2012):
Read-outs that look alike come from different tables or passages of the source.

Tested on: HCV 1b genotype
Test: HCV Replicon assay, 1b genotype
Format: cell-based
Conditions: Hepatitis C virus, HCV 1b genotype replicon
Method: An HCV Replicon assay was utilized in the present disclosure, and was prepared, conducted and validated as described in commonly owned PCT/US2006/022197 and in O'Boyle et. al. Antimicrob Agents Chemother. 2005 April; 49(4):1346-53. Assay methods incorporating luciferase reporters have also been used as described (Apath.com).
HCV-neo replicon cells and replicon cells containing mutations in the NS5A region were used to test the currently described family of compounds. The compounds were determined to have more than 10-fold less inhibitory activity on cells containing mutations than wild-type cells. Thus, the compounds of the present disclosure can be effective in inhibiting the function of the HCV NS5A protein and are understood to be as effective in combinations as previously described in application PCT/US2006/022197 and commonly owned WO/O4014852. Further, the compounds of the present disclosure can be effective against the HCV 1b genotype. It should also be understood that the compounds of the present disclosure can inhibit multiple genotypes of HCV. […] In one embodiment, compounds of the present disclosure are inhibitory versus 1a, 1b, 2a, 2b, 3a, 4a, and 5a genotypes.

SMILES | EC50 (read-out: 1b EC50 in Range) [nM] | EC50 (read-out: 1b EC50) [nM]
COC(=O)N[C@@H](C(=O)N1CCCN1c1nc(-c2ccc(-c3ccc(-c4c[nH]c(N5CCCN5C(=O)[C@H](NC(=O)OC)c5ccccc5)n4)cc3)cc2)c[nH]1)c1ccccc1 [Example 12, dimethyl (4,4′-biphenyldiylbis(1H-imidazole-4,2-diyl-2,1-pyrazolidinediyl((1R)-2-oxo-1-phenyl-2,1-ethanediyl)))biscarbamate] | 0.101 to 0.999 | –
COC(=O)N[C@H](C(=O)N1[C@H](c2ncc(-c3ccc(-c4ccc(-c5cnc([C@@H]6CCN(C)N6C(=O)[C@@H](NC(=O)OC)C(C)C)[nH]5)cc4)cc3)[nH]2)CCN1C)C(C)C [Example 1, methyl ((1S)-1-(((5S)-5-(5-(4′-(2-((3S)-2-((2S)-2-((methoxycarbonyl)amino)-3-methylbutanoyl)-1-methyl-3-pyrazolidinyl)-1H-imidazol-5-yl)-4-biphenylyl)-1H-imidazol-2-yl)-2-methyl-1-pyrazolidinyl)carbonyl)-2-methylpropyl)carbamate] | – | 0.003
O=C(OCc1ccccc1)N1CCCN1c1nc(-c2ccc(-c3ccc(-c4c[nH]c(N5CCCN5C(=O)OCc5ccccc5)n4)cc3)cc2)c[nH]1 [Example 10, dibenzyl 2,2′-(4,4′-biphenyldiylbis(1H-imidazole-4,2-diyl))di(1-pyrazolidinecarboxylate)] | 1 to 99 | –
COC(=O)N[C@H](C(=O)N1[C@H](c2ncc(-c3ccc(C#Cc4ccc(-c5cnc([C@@H]6CCN(C)N6C(=O)[C@@H](NC(=O)OC)C(C)C)[nH]5)cc4)cc3)[nH]2)CCN1C)C(C)C [Example 8, methyl ((1S)-1-(((5S)-5-(5-(4-((4-(2-((3S)-2-((2S)-2-((methoxycarbonyl)amino)-3-methylbutanoyl)-1-methyl-3-pyrazolidinyl)-1H-imidazol-5-yl)phenyl)ethynyl)phenyl)-1H-imidazol-2-yl)-2-methyl-1-pyrazolidinyl)carbonyl)-2-methylpropyl)carbamate] | 0.101 to 0.999 | 0.2
COC(=O)N[C@H](C(=O)N1CCCN1c1nc(-c2ccc(-c3ccc(-c4c[nH]c(N5CCCN5C(=O)[C@@H](NC(=O)OC)C(C)C)n4)cc3)cc2)c[nH]1)C(C)C [Example 11, methyl ((1S)-1-((2-(4-(4′-(2-(2-((2S)-2-((methoxycarbonyl)amino)-3-methylbutanoyl)-1-pyrazolidinyl)-1H-imidazol-4-yl)-4-biphenylyl)-1H-imidazol-2-yl)-1-pyrazolidinyl)carbonyl)-2-methylpropyl)carbamate] | 1 to 99 | < 13.7
